Results published in BigSolDB 2.1.

O=[N+]([O-])c1cn[nH]c1
solubility (mole fraction)
Settings	288.15 K	293.15 K	298.15 K	303.15 K	308.15 K	313.15 K	318.15 K	323.15 K	328.15 K
in THF	0.00413	0.00496	0.00592	0.00722	0.0089	0.011	0.0134	0.017	0.022
in acetone	0.0381	0.0405	0.0423	0.045	0.047	0.0495	0.0525	0.0553	0.0582
in acetonitrile	0.0391	0.0457	0.0529	0.0647	0.0776	0.0906	0.108	0.124	0.135
in ethanol	0.101	0.113	0.128	0.147	0.168	0.197	0.232	0.27	0.31
in ethyl acetate	0.00483	0.00609	0.00759	0.00946	0.0118	0.0144	0.0176	0.0214	0.0261
in isobutanol	0.0549	0.0648	0.0762	0.0908	0.107	0.132	0.161	0.195	0.247
in isopentanol	0.0629	0.0732	0.0854	0.106	0.12	0.143	0.173	0.213	0.262
in isopropanol	0.0481	0.0568	0.0675	0.0827	0.0988	0.121	0.147	0.186	0.238
in methanol	0.109	0.126	0.142	0.163	0.188	0.219	0.258	0.312	0.366
in methyl acetate	0.00727	0.00817	0.00942	0.0119	0.0139	0.0169	0.0189	0.024	0.0272
in n-butanol	0.079	0.0902	0.104	0.12	0.14	0.166	0.199	0.241	0.283
in n-pentanol	0.0714	0.0823	0.095	0.112	0.132	0.156	0.189	0.232	0.276
in n-propanol	0.0872	0.101	0.115	0.133	0.154	0.181	0.216	0.255	0.313
in water	0.00217	0.00286	0.0036	0.00471	0.00618	0.00763	0.00961	0.012	0.0151
